Consider three compounds from patent US7163921B1, “Peptide derivatives and medicinal compositions” (Nippon Shinyaku Co., Ltd., priority 2000, dated 2007).

Marks after values point to notes of the source that are not given here.

The test system of one experiment is Male mice (ddY). The experiment in a line: Mouse formalin test. The experiment is classed as in vivo. The procedure:
Male mice (ddY; 4 to 5 weeks old) were kept at a room temperature of 21 to 25° C. and a humidity of 45 to 65% in a cage having a 12-hour light/12-hour dark cycle while being fed with feed and water ad libitum, whereby being acclimatized for a period of 1 week or longer. 6 Animals in each group were employed.
The compound of Example 1 was dissolved in physiological saline. Each mouse was placed in a cylindrical tube whose diameter was about 4 cm, immobilized at its tail, and a 27G needle connected to a 1 mL syringe was inserted into its tail vein, via which 0.1 mL/10 g body weight of the drug solution was administered rapidly. In a control group, physiological saline was administered. After administration, an absorbent cotton was used for hemostasis, and the animal was returned to the observation cage. The dose of the compound of Example 1 was 1 mg or 3 mg per 1 kg body weight of each mouse.
Subsequently, each mouse was acclimatized sufficiently to the observation cage, and then placed in a retainer for the drug administration. 20 μL of a 1% formalin solution was subcutaneously administered into the plantar region of the hindpaw, and the mouse was returned to the observation cage, and examined for the duration of any aversive behavior such as licking or biting the administered hindpaw extremity over a period of 30 minutes using a stopwatch.

A further experiment deals with T1, human μ receptor (Homo sapiens, UniProt P35372).
T1 construct: purchased Receptor Biology
In words: μ Receptor binding test ([3H] diprenorphine displacement). To be noted: Ki for μ receptor divided by Ki for nociceptin receptor. The procedure:
A human μ receptor-expressing cell membrane preparation (Receptor Biology) was adjusted at the membrane protein level of 8.5 μg/mL in a Tris buffer [50 mM Tris-HCl (pH 7.8), 5 mM MgCl2, 1 mM EGTA, 0.1% BSA]. To this suspension, [^3H] diprenorphine (diluted to the final concentration of 0.13 nM in the Tris buffer) and a test substance were added, and the mixture was incubated at 25° C. for 90 minutes. Using a cell harvester and a washing solution [50 mM Tris-HCl (pH 7.8), 4° C.], the membrane was recovered onto the GF/B filter which had been pretreated with 0.3% PEI, and washed further 4 times. The filter was transferred into a vial, to which a scintillator was added, and then the radioactivity was measured using a liquid scintillation counter. A non-specific binding was regarded as a binding in the presence of 100 μM naloxone, and the difference between the total binding and the non-specific binding was regarded as the specific binding. Based on the % binding inhibition in the presence of a test substance, the IC50 was obtained and employed together with the Kd value of the [^3H] diprenorphine to calculate the Ki value of the test substance (mol/L; hereinafter referred to as M value). The M value was divided by the N value obtained in Test Example 1 to judge the selectivity of the receptor binding of the test substance.

T1 sequence (P35372 whole entry): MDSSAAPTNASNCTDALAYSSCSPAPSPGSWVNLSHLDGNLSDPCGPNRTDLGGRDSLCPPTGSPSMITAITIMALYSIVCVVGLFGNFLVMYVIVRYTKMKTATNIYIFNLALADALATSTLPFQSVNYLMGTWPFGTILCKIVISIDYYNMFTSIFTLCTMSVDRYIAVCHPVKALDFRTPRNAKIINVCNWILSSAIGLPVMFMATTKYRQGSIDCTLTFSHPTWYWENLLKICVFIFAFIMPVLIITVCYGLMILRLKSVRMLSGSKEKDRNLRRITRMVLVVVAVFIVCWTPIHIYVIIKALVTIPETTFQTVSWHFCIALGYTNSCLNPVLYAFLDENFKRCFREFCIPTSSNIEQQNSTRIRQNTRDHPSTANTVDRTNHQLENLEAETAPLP

Regarding `N=C(N)NCCCCCCN[C@@H](Cc1ccc(O)cc1)C(=O)N[C@@H](Cc1ccc(O)cc1)C(=O)N[C@@H](CCCNC(=N)N)C(=O)N[C@@H](Cc1c[nH]c2ccccc12)C(N)=O` [Example 1, N-α-6-Guanidinohexyl-L-tyrosyl-L-tyrosyl-L-arginyl-L-tryptophanamide], the “Duration of aversive behavior” value is 80.8** sec in the experiment with Male mice (ddY) (1 mg/kg via tail vein, 0 to 10 min after formalin administration, control 128.3); 163.8 s in the experiment on Male mice (ddY) (1 mg/kg via tail vein, 10 to 30 min after formalin administration, control 261.0); 41.00** sec in the experiment with Male mice (ddY) (3 mg/kg via tail vein, 0 to 10 min after formalin administration, control 128.3); 112.8** sec with Male mice (ddY) (3 mg/kg via tail vein, 10 to 30 min after formalin administration, control 261.0). Besides, the “Selectivity (M value/N value)” value on human μ receptor is listed as 93.

Take `Cc1cc(C[C@H](NCCCCCCNC(=N)N)C(=O)N[C@@H](Cc2ccc(O)cc2)C(=O)N[C@@H](CCCNC(=N)N)C(=O)N[C@H](C)c2ccc3ccccc3c2)cc(C)c1O` [Example 25, N-α-6-Guanidinohexyl-3,5-dimethyl-L-tyrosyl-L-tyrosyl-N-[(R)-1-(2-naphthyl)ethyl]-L-argininamide]: the “Selectivity (M value/N value)” value at human μ receptor was found to be 15.

As for `Cc1cc(C[C@H](NCCCCCCNC(=N)N)C(=O)N[C@@H](Cc2cc(C)c(O)c(C)c2)C(=O)N[C@@H](CCCNC(=N)N)C(=O)N[C@H](C)c2ccc3ccccc3c2)cc(C)c1O` [Example 27, N-α-6-Guanidinohexyl-3,5-dimethyl-L-tyrosyl-3,5-dimethyl-L-tyrosyl-N-[(R)-1-(2-naphthyl)ethyl]-L-argininamide], on human μ receptor, the “Selectivity (M value/N value)” value is listed as 17.
